Data published in US20040063790A1, “Methods for inhibition of angiogenesis” (The Scripps Research Institute, priority 1996, published 2004).
[ ]: non-standard residue; d: D form.

Tested on: M21-L melanoma tumor
Assay: In vivo chimeric mouse:human assay
Set-up: species or system SCID mouse
Conditions: intravenous, FIG. 18
Protocol: An in vivo chimeric mouse:human model was generated by replacing a portion of skin from a SCID mouse with human neonatal foreskin (FIG. 4). After the skin graft was established, the human foreskin was inoculated with carcinoma cells. After a measurable tumor was established, either an αvβ3 antagonist or PBS was injected into the mouse tail vein. Following a 2-3 week period, the tumor was excised and analyzed by weight and histology.
The in vivo chimeric mouse:human model is prepared essentially as described in Yan, et al., J. Clin. Invest., 91:986-996 (1993). Briefly, a 2 cm^2 square area of skin was surgically removed from a SCID mouse (6-8 weeks of age) and replaced with a human foreskin. The mouse was anesthetized and the hair removed from a 5 cm^2 area on each side of the lateral abdominal region by shaving. Two circular graft beds of 2 cm^2 were prepared by removing the full thickness of skin down to the fascia. Full thickness human skin grafts of the same size derived from human neonatal foreskin were placed onto the wound beds and sutured into place. […]
In a procedure similar to that described above for monoclonal antibodies, peptide antagonists of αvβ3 were injected intravenously into the tail vein of SCID mice having measurable M21-L tumors. […] The mean volume and weight of resected tumors following treatment were determined with the results respectively shown in FIGS. 19A and 19B.

With “cyclo (RADfV) (cyclo(RAD[dF]V); SMILES CC(C)[C@@H]1NC(=O)[C@@H](Cc2ccccc2)NC(=O)[C@H](CC(=O)O)NC(=O)[C@H](C)NC(=O)[C@H](CCCNC(=N)N)NC1=O) [Peptide 69601, reference compound]” the tumor volume was “approximately 360 mm^3”.
